Measurements as given in the supplement of paper PMC10883282.

Assays:
Assay in all cases: relative viability vs DMSO control (72 h) (fraction); higher = more viable cells
SK-LMS-1 = tested on: SK-LMS-1
Summary of the method: (§1)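 After seeding at densities set for 80–90% confluence in 384-well plates, sarcoma cell lines waited 24 h before 2.5 µl of serially diluted compound was added. Source plates held 10 mM down to 0.0002 mM. Plates were incubated 72 h at 37 °C with 5% CO2, with 0.1% DMSO vehicle and a 5 µM positive control, and relative viability was taken from ATPLite as percent growth averaged over up to triplicate wells, with 1 set as full and 0 as none.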

VA-ES-BJ = tested on: VA-ES-BJ
Summary of the method: as §1

KHOS-240S = tested on: KHOS-240S
Summary of the method: as §1

A204 = tested on: A204
Summary of the method: as §1

MES-SA = tested on: MES-SA
Summary of the method: as §1

SW1353 = tested on: SW1353
Summary of the method: as §1

SK-ES-1 = tested on: SK-ES-1
Summary of the method: as §1

RD = tested on: RD
Summary of the method: as §1

SW872 = tested on: SW872
Summary of the method: as §1

G401 = tested on: G401
Summary of the method: as §1

HS729 = tested on: HS729
Summary of the method: as §1

SW982 = tested on: SW982
Summary of the method: as §1

CN(C)CCCOc1ccc(-c2ccc3ncc4c(c3c2)n(C2CCOCC2)c(=O)n4C)cn1 [AZD-0156]
Conditions | relative viability
A204, 0.00017 µM | 1.08
A204, 0.00051 µM | 1.1
A204, 0.00152 µM | 1.07
A204, 0.00457 µM | 1.1
A204, 0.01372 µM | 1.04
A204, 0.04115 µM | 1.01
A204, 0.1235 µM | 0.919
A204, 0.3704 µM | 0.84
A204, 1.111 µM | 0.704
A204, 3.333 µM | 0.766
A204, 10 µM | 0.628
G401, 0.00017 µM | 1.08
G401, 0.00051 µM | 1.06
G401, 0.00152 µM | 1.06
G401, 0.00457 µM | 1.05
G401, 0.01372 µM | 1.06
G401, 0.04115 µM | 1.05
G401, 0.1235 µM | 1.03
G401, 0.3704 µM | 1.01
G401, 1.111 µM | 0.968
G401, 3.333 µM | 1.01
G401, 10 µM | 0.9515
HS729, 0.00017 µM | 1
HS729, 0.00051 µM | 1.02
HS729, 0.00152 µM | 1.01
HS729, 0.00457 µM | 0.968
HS729, 0.01372 µM | 0.937
HS729, 0.04115 µM | 0.9191
HS729, 0.1235 µM | 0.857
HS729, 0.3704 µM | 0.833
HS729, 1.111 µM | 0.766
HS729, 3.333 µM | 0.758
HS729, 10 µM | 0.519
KHOS-240S, 0.00017 µM | 1.08
KHOS-240S, 0.00051 µM | 1.1
KHOS-240S, 0.00152 µM | 1.1
KHOS-240S, 0.00457 µM | 1.08
KHOS-240S, 0.01372 µM | 1.06
KHOS-240S, 0.04115 µM | 1.03
KHOS-240S, 0.1235 µM | 1.04
KHOS-240S, 0.3704 µM | 0.99
KHOS-240S, 1.111 µM | 0.865
KHOS-240S, 3.333 µM | 0.814
KHOS-240S, 10 µM | 0.587
MES-SA, 0.00017 µM | 1.023
MES-SA, 0.00051 µM | 1.02
MES-SA, 0.00152 µM | 0.955
MES-SA, 0.00457 µM | 1.02
MES-SA, 0.01372 µM | 0.935
MES-SA, 0.04115 µM | 0.97
MES-SA, 0.1235 µM | 0.901
MES-SA, 0.3704 µM | 0.813
MES-SA, 1.111 µM | 0.716
MES-SA, 3.333 µM | 0.848
MES-SA, 10 µM | 0.654
RD, 0.00017 µM | 1.04
RD, 0.00051 µM | 1.08
RD, 0.00152 µM | 1.07
RD, 0.00457 µM | 1.1
RD, 0.01372 µM | 1.08
RD, 0.04115 µM | 1.11
RD, 0.1235 µM | 1.07
RD, 0.3704 µM | 1.076
RD, 1.111 µM | 0.949
RD, 3.333 µM | 0.592
RD, 10 µM | 0.536
SK-ES-1, 0.00017 µM | 1.07
SK-ES-1, 0.00051 µM | 1.06
SK-ES-1, 0.00152 µM | 0.963
SK-ES-1, 0.00457 µM | 1
SK-ES-1, 0.01372 µM | 0.828
SK-ES-1, 0.04115 µM | 0.815
SK-ES-1, 0.1235 µM | 0.734
SK-ES-1, 0.3704 µM | 0.643
SK-ES-1, 1.111 µM | 0.59
SK-ES-1, 3.333 µM | 0.626
SK-ES-1, 10 µM | 0.522
SK-LMS-1, 0.00017 µM | 0.969
SK-LMS-1, 0.00051 µM | 1.01
SK-LMS-1, 0.00152 µM | 0.962
SK-LMS-1, 0.00457 µM | 0.976
SK-LMS-1, 0.01372 µM | 0.891
SK-LMS-1, 0.04115 µM | 0.881
SK-LMS-1, 0.1235 µM | 0.7368
SK-LMS-1, 0.3704 µM | 0.743
SK-LMS-1, 1.111 µM | 0.665
SK-LMS-1, 3.333 µM | 0.7995
SK-LMS-1, 10 µM | 0.674
SW872, 0.00017 µM | 1.06
SW872, 0.00051 µM | 1.05
SW872, 0.00152 µM | 1.06
SW872, 0.00457 µM | 1.03
SW872, 0.01372 µM | 0.941
SW872, 0.04115 µM | 0.892
SW872, 0.1235 µM | 0.808
SW872, 0.3704 µM | 0.654
SW872, 1.111 µM | 0.476
SW872, 3.333 µM | 0.398
SW872, 10 µM | 0.26
SW982, 0.00017 µM | 1.05
SW982, 0.00051 µM | 1.08
SW982, 0.00152 µM | 1.06
SW982, 0.00457 µM | 1.05
SW982, 0.01372 µM | 1.03
SW982, 0.04115 µM | 0.964
SW982, 0.1235 µM | 0.828
SW982, 0.3704 µM | 0.619
SW982, 1.111 µM | 0.484
SW982, 3.333 µM | 0.349
SW982, 10 µM | 0.218
SW1353, 0.00017 µM | 1.1
SW1353, 0.00051 µM | 1.07
SW1353, 0.00152 µM | 1.05
SW1353, 0.00457 µM | 1.07
SW1353, 0.01372 µM | 1.01
SW1353, 0.04115 µM | 1.02
SW1353, 0.1235 µM | 0.97
SW1353, 0.3704 µM | 0.951
SW1353, 1.111 µM | 0.883
SW1353, 3.333 µM | 0.949
SW1353, 10 µM | 0.865
VA-ES-BJ, 0.00017 µM | 1.118
VA-ES-BJ, 0.00051 µM | 1.11
VA-ES-BJ, 0.00152 µM | 1.09
VA-ES-BJ, 0.00457 µM | 1.09
VA-ES-BJ, 0.01372 µM | 1.04
VA-ES-BJ, 0.04115 µM | 0.949
VA-ES-BJ, 0.1235 µM | 0.81
VA-ES-BJ, 0.3704 µM | 0.674
VA-ES-BJ, 1.111 µM | 0.462
VA-ES-BJ, 3.333 µM | 0.453
VA-ES-BJ, 10 µM | 0.348
